Values after ≈ are worked out from the molar mass of the structure shown.
What was measured:
Pseudomonas aeruginosa [1] = assay: microbe, parasite or virus in culture; format: functional; settings: ATCC 27853, 24 h
Description: Antibacterial activity against Pseudomonas aeruginosa ATCC 27853 after 24 hrs by macrobroth dilution method in the presence of bovine serum albumin

[2] = system: Staphylococcus epidermidis; assay: microbe, parasite or virus in culture; format: functional; settings: Staphylococcus epidermidis, 81388, 24 h
Description: Antibacterial activity against methicillin-susceptible Staphylococcus epidermidis 81388 after 24 hrs by macrobroth dilution method

[3] = system: Staphylococcus epidermidis; assay: microbe, parasite or virus in culture; format: functional; settings: Staphylococcus epidermidis, 81388, 24 h; remark: listed apart in the source
Description: Antibacterial activity against methicillin-susceptible Staphylococcus epidermidis 81388 after 24 hrs by macrobroth dilution method in the presence of bovine serum albumin

Enterococcus faecalis [4] = assay: microbe, parasite or virus in culture; format: functional; settings: ATCC 29212, 24 h
Description: Antibacterial activity against Enterococcus faecalis ATCC 29212 after 24 hrs by macrobroth dilution method in the presence of bovine serum albumin

Acinetobacter baumannii [5] = assay: microbe, parasite or virus in culture; format: functional; settings: isolate CAN-ICU 63169, 24 h
Description: Antibacterial activity against Acinetobacter baumannii isolate CAN-ICU 63169 after 24 hrs by macrobroth dilution method in the presence of bovine serum albumin

Escherichia coli [6] = assay: microbe, parasite or virus in culture; format: functional; settings: isolate CAN-ICU 61714, 24 h
Description: Antibacterial activity against Escherichia coli isolate CAN-ICU 61714 after 24 hrs by macrobroth dilution method in the presence of bovine serum albumin

Streptococcus pneumoniae [7] = assay: microbe, parasite or virus in culture; format: functional; settings: ATCC 49619, 24 h
Description: Antibacterial activity against Streptococcus pneumoniae ATCC 49619 after 24 hrs by macrobroth dilution method

Acinetobacter baumannii [8] = assay: microbe, parasite or virus in culture; format: functional; settings: isolate CAN-ICU 63169, 24 h; remark: listed apart in the source
Description: Antibacterial activity against Acinetobacter baumannii 63169 isolate CAN-ICU after 24 hrs by macrobroth dilution method

Streptococcus pneumoniae [9] = assay: microbe, parasite or virus in culture; format: functional; settings: ATCC 49619, 24 h; remark: listed apart in the source
Description: Antibacterial activity against Streptococcus pneumoniae ATCC 49619 after 24 hrs by macrobroth dilution method in the presence of bovine serum albumin

Enterococcus faecium [10] = assay: microbe, parasite or virus in culture; format: functional; settings: ATCC 27270, 24 h
Description: Antibacterial activity against Enterococcus faecium ATCC 27270 after 24 hrs by macrobroth dilution method

[11] = system: Staphylococcus epidermidis; assay: microbe, parasite or virus in culture; format: functional, isolate CAN-ICU 61589; settings: isolate CAN-ICU61589, 24 h
Description: Antibacterial activity against methicillin-resistant Staphylococcus epidermidis isolate CAN-ICU 61589 after 24 hrs by macrobroth dilution method in the presence of bovine serum albumin

Escherichia coli [12] = assay: microbe, parasite or virus in culture; format: functional; settings: isolate CAN-ICU 63074, 24 h
Description: Antibacterial activity against Escherichia coli isolate CAN-ICU 63074 after 24 hrs by macrobroth dilution method in the presence of bovine serum albumin

[13] = Toxicity in human erythrocytes assessed as hemolysis at 100 ug/ml by spectrophotometry; settings: at 100 µg/mL
Enterococcus faecalis [14] = assay: microbe, parasite or virus in culture; format: functional; settings: ATCC 29212, 24 h; remark: listed apart in the source
Description: Antibacterial activity against Enterococcus faecalis ATCC 29212 after 24 hrs by macrobroth dilution method

Pseudomonas aeruginosa [15] = assay: microbe, parasite or virus in culture; format: functional; settings: isolate CAN-ICU 62308, 24 h
Description: Antibacterial activity against Pseudomonas aeruginosa isolate CAN-ICU 62308 after 24 hrs by macrobroth dilution method

Staphylococcus aureus [16] = assay: microbe, parasite or virus in culture; format: functional; settings: ATCC 33592, 24 h
Description: Antibacterial activity against methicillin-resistant Staphylococcus aureus ATCC 33592 after 24 hrs by macrobroth dilution method

Staphylococcus aureus [17] = assay: microbe, parasite or virus in culture; format: functional; settings: ATCC 29213, 24 h
Description: Antibacterial activity against Staphylococcus aureus ATCC 29213 after 24 hrs by macrobroth dilution method

Staphylococcus aureus [18] = assay: microbe, parasite or virus in culture; format: functional; settings: ATCC 33592, 24 h; remark: listed apart in the source
Description: Antibacterial activity against methicillin-resistant Staphylococcus aureus ATCC 33592 after 24 hrs by macrobroth dilution method in the presence of bovine serum albumin

Escherichia coli [19] = assay: microbe, parasite or virus in culture; format: functional; settings: isolate CAN-ICU 61714, 24 h; remark: listed apart in the source
Description: Antibacterial activity against Escherichia coli isolate CAN-ICU 61714 after 24 hrs by macrobroth dilution method

Enterococcus faecium [20] = assay: microbe, parasite or virus in culture; format: functional; settings: ATCC 27270, 24 h; remark: listed apart in the source
Description: Antibacterial activity against Enterococcus faecium ATCC 27270 after 24 hrs by macrobroth dilution method in the presence of bovine serum albumin

Escherichia coli [21] = assay: microbe, parasite or virus in culture; format: functional; settings: ATCC 25922, 24 h
Description: Antibacterial activity against Escherichia coli ATCC 25922 after 24 hrs by macrobroth dilution method in the presence of bovine serum albumin

[22] = system: Stenotrophomonas maltophilia; assay: microbe, parasite or virus in culture; format: functional; settings: isolate CAN-ICU 62584, 24 h
Description: Antibacterial activity against Stenotrophomonas maltophilia isolate CAN-ICU 62584 after 24 hrs by macrobroth dilution method

Klebsiella pneumoniae [23] = assay: microbe, parasite or virus in culture; format: functional; settings: ATCC 13883, 24 h
Description: Antibacterial activity against Klebsiella pneumoniae ATCC 13883 after 24 hrs by macrobroth dilution method in the presence of bovine serum albumin

Escherichia coli [24] = assay: microbe, parasite or virus in culture; format: functional; settings: ATCC 25922, 24 h; remark: listed apart in the source
Description: Antibacterial activity against Escherichia coli ATCC 25922 after 24 hrs by macrobroth dilution method

Klebsiella pneumoniae [25] = assay: microbe, parasite or virus in culture; format: functional; settings: ATCC 13883, 24 h; remark: listed apart in the source
Description: Antibacterial activity against Klebsiella pneumoniae ATCC 13883 after 24 hrs by macrobroth dilution method

Pseudomonas aeruginosa [26] = assay: microbe, parasite or virus in culture; format: functional; settings: isolate CAN-ICU 62308, 24 h; remark: listed apart in the source
Description: Antibacterial activity against Pseudomonas aeruginosa isolate CAN-ICU 62308 after 24 hrs by macrobroth dilution method in the presence of bovine serum albumin

[27] = system: Staphylococcus epidermidis; assay: microbe, parasite or virus in culture; format: functional; settings: isolate CAN-ICU61589, 24 h
Description: Antibacterial activity against methicillin-resistant Staphylococcus epidermidis isolate CAN-ICU 61589 after 24 hrs by macrobroth dilution method

[28] = system: Stenotrophomonas maltophilia; assay: microbe, parasite or virus in culture; format: functional; settings: isolate CAN-ICU 62584, 24 h; remark: listed apart in the source
Description: Antibacterial activity against Stenotrophomonas maltophilia isolate CAN-ICU 62584 after 24 hrs by macrobroth dilution method in the presence of bovine serum albumin

Pseudomonas aeruginosa [29] = assay: microbe, parasite or virus in culture; format: functional; settings: ATCC 27853, 24 h; remark: listed apart in the source
Description: Antibacterial activity against Pseudomonas aeruginosa ATCC 27853 after 24 hrs by macrobroth dilution method

Escherichia coli [30] = assay: microbe, parasite or virus in culture; format: functional; settings: isolate CAN-ICU 63074, 24 h; remark: listed apart in the source
Description: Antibacterial activity against Escherichia coli isolate CAN-ICU 63074 after 24 hrs by macrobroth dilution method

Staphylococcus aureus [31] = assay: microbe, parasite or virus in culture; format: functional; settings: ATCC 29213, 24 h; remark: listed apart in the source
Description: Antibacterial activity against Staphylococcus aureus ATCC 29213 after 24 hrs by macrobroth dilution method in the presence of bovine serum albumin

| Compound | MIC90 (Pseudomonas aeruginosa [1]) [µg/mL] | MIC90 [2] [µg/mL] | MIC90 [3] [µg/mL] | MIC90 (Enterococcus faecalis [4]) [µg/mL] | MIC90 (Acinetobacter baumannii [5]) [µg/mL] | MIC90 (Escherichia coli [6]) [µg/mL] | MIC90 (Streptococcus pneumoniae [7]) [µg/mL] | MIC90 (Acinetobacter baumannii [8]) [µg/mL] | MIC90 (Streptococcus pneumoniae [9]) [µg/mL] | MIC90 (Enterococcus faecium [10]) [µg/mL] | MIC90 [11] [µg/mL] | MIC90 (Escherichia coli [12]) [µg/mL] | MIC90 (Enterococcus faecalis [14]) [µg/mL] | MIC90 (Pseudomonas aeruginosa [15]) [µg/mL] | MIC90 (Staphylococcus aureus [16]) [µg/mL] | MIC90 (Staphylococcus aureus [17]) [µg/mL] | MIC90 (Staphylococcus aureus [18]) [µg/mL] | MIC90 (Escherichia coli [19]) [µg/mL] | MIC90 (Enterococcus faecium [20]) [µg/mL] | MIC90 (Escherichia coli [21]) [µg/mL] | also measured |
| --- | --- | --- | --- | --- | --- | --- | --- | --- | --- | --- | --- | --- | --- | --- | --- | --- | --- | --- | --- | --- | --- |
| Cc1cc(OCc2cn(C[C@H]3O[C@@H](O[C@@H]4[C@@H](O)[C@H](N)C[C@H](N)[C@H]4O[C@H]4O[C@H](CN)[C@@H](O)[C@H](O)[C@H]4N)[C@H](O)[C@@H]3O[C@H]3O[C@@H](CN)[C@@H](O)[C@H](O)[C@H]3N)nn2)cc(C)c1Cl | 512 (≈ 614 µM) | 8 (≈ 9.59 µM) | 8 (≈ 9.59 µM) | 128 (≈ 153 µM) | > 512 | 16 (≈ 19.2 µM) | 64 (≈ 76.7 µM) | > 512 | 128 (≈ 153 µM) | 128 (≈ 153 µM) | 8 (≈ 9.59 µM) | 128 (≈ 153 µM) | 64 (≈ 76.7 µM) | 256 (≈ 307 µM) | 256 (≈ 307 µM) | 16 (≈ 19.2 µM) | 512 (≈ 614 µM) | 16 (≈ 19.2 µM) | 64 (≈ 76.7 µM) | 32 (≈ 38.4 µM) | hemolysis at 100 ug/ml [13]: 0.75%; MIC90 [22]: > 512 µg/mL; MIC90 (Klebsiella pneumoniae [23]): 4 µg/mL (≈ 4.79 µM); MIC90 (Escherichia coli [24]): 16 µg/mL (≈ 19.2 µM); MIC90 (Klebsiella pneumoniae [25]): 8 µg/mL (≈ 9.59 µM); MIC90 (Pseudomonas aeruginosa [26]): 256 µg/mL (≈ 307 µM); MIC90 [27]: 8 µg/mL (≈ 9.59 µM); MIC90 [28]: > 512 µg/mL; MIC90 (Pseudomonas aeruginosa [29]): 512 µg/mL (≈ 614 µM); MIC90 (Escherichia coli [30]): 128 µg/mL (≈ 153 µM); MIC90 (Staphylococcus aureus [31]): 32 µg/mL (≈ 38.4 µM) |
| Cc1cc(OCCCCc2cn(C[C@H]3O[C@@H](O[C@@H]4[C@@H](O)[C@H](N)C[C@H](N)[C@H]4O[C@H]4O[C@H](CN)[C@@H](O)[C@H](O)[C@H]4N)[C@H](O)[C@@H]3O[C@H]3O[C@@H](CN)[C@@H](O)[C@H](O)[C@H]3N)nn2)cc(C)c1Cl | > 512 | 8 (≈ 9.13 µM) | 8 (≈ 9.13 µM) | 128 (≈ 146 µM) | 512 (≈ 584 µM) | 16 (≈ 18.3 µM) | 64 (≈ 73 µM) | 512 (≈ 584 µM) | 256 (≈ 292 µM) | 16 (≈ 18.3 µM) | 8 (≈ 9.13 µM) | 128 (≈ 146 µM) | 128 (≈ 146 µM) | 256 (≈ 292 µM) | 128 (≈ 146 µM) | 16 (≈ 18.3 µM) | 256 (≈ 292 µM) | 16 (≈ 18.3 µM) | 32 (≈ 36.5 µM) | 32 (≈ 36.5 µM) | hemolysis at 100 ug/ml [13]: 0.75%; MIC90 [22]: > 512 µg/mL; MIC90 (Klebsiella pneumoniae [23]): 4 µg/mL (≈ 4.56 µM); MIC90 (Escherichia coli [24]): 32 µg/mL (≈ 36.5 µM); MIC90 (Klebsiella pneumoniae [25]): 4 µg/mL (≈ 4.56 µM); MIC90 (Pseudomonas aeruginosa [26]): 256 µg/mL (≈ 292 µM); MIC90 [27]: 8 µg/mL (≈ 9.13 µM); MIC90 [28]: > 512 µg/mL; MIC90 (Pseudomonas aeruginosa [29]): 512 µg/mL (≈ 584 µM); MIC90 (Escherichia coli [30]): 128 µg/mL (≈ 146 µM); MIC90 (Staphylococcus aureus [31]): 32 µg/mL (≈ 36.5 µM) |
| Cc1cc(O)cc(C)c1Cl [CHLOROXYLENOL] | > 512 | 32 (≈ 204 µM) | 512 (≈ 3270 µM) | > 512 | > 512 | > 512 | 128 (≈ 817 µM) | 128 (≈ 817 µM) | > 512 | 256 (≈ 1630 µM) | 512 (≈ 3270 µM) | > 512 | 256 (≈ 1630 µM) | 256 (≈ 1630 µM) | 64 (≈ 409 µM) | 32 (≈ 204 µM) | 512 (≈ 3270 µM) | 256 (≈ 1630 µM) | > 512 | > 512 | MIC90 [22]: 128 µg/mL (≈ 817 µM); MIC90 (Klebsiella pneumoniae [23]): > 512 µg/mL; MIC90 (Escherichia coli [24]): 256 µg/mL (≈ 1630 µM); MIC90 (Klebsiella pneumoniae [25]): 256 µg/mL (≈ 1630 µM); MIC90 (Pseudomonas aeruginosa [26]): > 512 µg/mL; MIC90 [27]: 16 µg/mL (≈ 102 µM); MIC90 [28]: > 512 µg/mL; MIC90 (Pseudomonas aeruginosa [29]): 512 µg/mL (≈ 3270 µM); MIC90 (Escherichia coli [30]): 256 µg/mL (≈ 1630 µM); MIC90 (Staphylococcus aureus [31]): 512 µg/mL (≈ 3270 µM) |
| NC[C@@H]1O[C@H](O[C@H]2[C@@H](O)[C@H](O[C@@H]3[C@@H](O)[C@H](N)C[C@H](N)[C@H]3O[C@H]3O[C@H](CN)[C@@H](O)[C@H](O)[C@H]3N)O[C@@H]2CO)[C@H](N)[C@@H](O)[C@@H]1O.O.O=S(=O)(O)O [NEOMYCIN TRISULFATE HYDRATE] | 256 | 0.5 | 0.5 | 16 | 32 | 1 | 32 | 64 | 8 | 4 | ≤ 0.25 | 16 | 16 | 256 | 256 | 1 | 128 | 1 | 4 | 0.25 | hemolysis at 100 ug/ml [13]: 0.69%; MIC90 [22]: > 512 µg/mL; MIC90 (Klebsiella pneumoniae [23]): ≤ 0.25 µg/mL; MIC90 (Escherichia coli [24]): 4 µg/mL; MIC90 (Klebsiella pneumoniae [25]): 0.25 µg/mL; MIC90 (Pseudomonas aeruginosa [26]): 256 µg/mL; MIC90 [27]: ≤ 0.25 µg/mL; MIC90 [28]: > 512 µg/mL; MIC90 (Pseudomonas aeruginosa [29]): 512 µg/mL; MIC90 (Escherichia coli [30]): 8 µg/mL; MIC90 (Staphylococcus aureus [31]): 0.5 µg/mL |
| Oc1cc(Cl)ccc1Oc1ccc(Cl)cc1Cl [TRICLOSAN] | > 512 | 1 (≈ 3.45 µM) | 1 (≈ 3.45 µM) | 512 (≈ 1770 µM) | 128 (≈ 442 µM) | 16 (≈ 55.3 µM) | 128 (≈ 442 µM) | 8 (≈ 27.6 µM) | 256 (≈ 884 µM) | 16 (≈ 55.3 µM) | 1 (≈ 3.45 µM) | 64 (≈ 221 µM) | 8 (≈ 27.6 µM) | 64 (≈ 221 µM) | ≤ 0.25 | 0.5 (≈ 1.73 µM) | 1 (≈ 3.45 µM) | 1 (≈ 3.45 µM) | 512 (≈ 1770 µM) | 16 (≈ 55.3 µM) | MIC90 [22]: 512 µg/mL (≈ 1770 µM); MIC90 (Klebsiella pneumoniae [23]): 32 µg/mL (≈ 111 µM); MIC90 (Escherichia coli [24]): ≤ 0.25 µg/mL; MIC90 (Klebsiella pneumoniae [25]): 1 µg/mL (≈ 3.45 µM); MIC90 (Pseudomonas aeruginosa [26]): > 512 µg/mL; MIC90 [27]: ≤ 0.25 µg/mL; MIC90 [28]: > 512 µg/mL; MIC90 (Pseudomonas aeruginosa [29]): > 512 µg/mL; MIC90 (Escherichia coli [30]): 1 µg/mL (≈ 3.45 µM); MIC90 (Staphylococcus aureus [31]): 0.5 µg/mL (≈ 1.73 µM) |
